Assay results: ChEMBL document CHEMBL5308504, “Tm Shift (DSF) assay results for EUbOPEN Chemogenomics Library” (2023)
Where “and” joins values, the source holds several entries; their conditions need not be identical. Equal values may be shown once. Numbered stars: 1 amine (or outer) side, 2 acyl side, 3 side chain; on linkers, the order of the positions; unused ones are H or OH. Bridge positions count the residues as written; N and C are the ends. Square brackets hold non-standard residues; d marks the D form. Peptide text beside a SMILES is read from it. I, II: the chains in the order shown. Hexamethylenediamine = C(CCCN[*:2])CCN[*:1]; Dip = N[C@H](C(=O)O)C(c1ccccc1)c1ccccc1; Chg = N[C@H](C(=O)O)C1CCCCC1; NMeA = CN[C@@H](C)C(=O)O

Columns and labels:
[1] = molecular target: Fibroblast growth factor receptor 3 (Homo sapiens) (UniProt P22607); settings: Compound concentration 20.0 uM, Protein concentration 2.0 uM, Result type QC Liability
Description: Thermal Shift Assay. Domain: start/stop: P449-E759

Peregrin (Homo sapiens) = molecular target: T1, Peregrin (Homo sapiens) (UniProt P55201); settings: Compound concentration 20.0 uM, Protein concentration 2.0 uM, Result type QC Liability
T1 sequence (whole entry): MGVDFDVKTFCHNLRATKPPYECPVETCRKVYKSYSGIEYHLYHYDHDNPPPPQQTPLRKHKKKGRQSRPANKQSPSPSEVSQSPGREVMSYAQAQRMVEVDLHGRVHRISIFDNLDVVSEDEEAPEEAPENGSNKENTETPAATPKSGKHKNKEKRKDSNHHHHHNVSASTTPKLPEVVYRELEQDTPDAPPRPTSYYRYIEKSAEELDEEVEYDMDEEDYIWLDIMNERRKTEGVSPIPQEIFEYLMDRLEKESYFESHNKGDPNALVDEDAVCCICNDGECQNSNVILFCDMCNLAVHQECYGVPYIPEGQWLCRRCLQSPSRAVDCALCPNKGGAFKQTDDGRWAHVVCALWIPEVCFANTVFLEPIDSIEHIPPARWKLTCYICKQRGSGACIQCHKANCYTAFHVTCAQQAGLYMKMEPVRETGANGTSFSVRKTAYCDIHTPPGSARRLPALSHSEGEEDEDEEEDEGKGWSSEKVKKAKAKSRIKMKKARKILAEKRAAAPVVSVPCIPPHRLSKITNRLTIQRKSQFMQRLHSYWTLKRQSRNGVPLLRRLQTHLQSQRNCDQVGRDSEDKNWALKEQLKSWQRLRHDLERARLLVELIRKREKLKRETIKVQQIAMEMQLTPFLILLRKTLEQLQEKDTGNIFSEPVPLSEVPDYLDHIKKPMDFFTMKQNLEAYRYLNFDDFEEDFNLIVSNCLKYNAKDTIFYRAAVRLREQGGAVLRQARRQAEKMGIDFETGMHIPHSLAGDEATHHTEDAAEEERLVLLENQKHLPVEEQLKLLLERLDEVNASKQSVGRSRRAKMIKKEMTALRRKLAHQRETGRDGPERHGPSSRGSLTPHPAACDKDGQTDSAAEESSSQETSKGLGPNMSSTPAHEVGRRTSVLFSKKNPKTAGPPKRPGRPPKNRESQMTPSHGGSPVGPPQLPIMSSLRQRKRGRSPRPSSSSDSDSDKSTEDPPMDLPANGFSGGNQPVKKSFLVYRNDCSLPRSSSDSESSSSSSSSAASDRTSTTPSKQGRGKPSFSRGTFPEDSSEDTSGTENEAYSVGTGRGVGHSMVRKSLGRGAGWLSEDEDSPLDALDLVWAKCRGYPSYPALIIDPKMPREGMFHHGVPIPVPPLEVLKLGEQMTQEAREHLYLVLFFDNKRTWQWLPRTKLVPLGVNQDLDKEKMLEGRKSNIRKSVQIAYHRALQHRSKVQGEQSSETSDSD

Chain of Fibroblast growth factor receptor 3 (Homo sapiens) (P22607 23-806 limits assumed): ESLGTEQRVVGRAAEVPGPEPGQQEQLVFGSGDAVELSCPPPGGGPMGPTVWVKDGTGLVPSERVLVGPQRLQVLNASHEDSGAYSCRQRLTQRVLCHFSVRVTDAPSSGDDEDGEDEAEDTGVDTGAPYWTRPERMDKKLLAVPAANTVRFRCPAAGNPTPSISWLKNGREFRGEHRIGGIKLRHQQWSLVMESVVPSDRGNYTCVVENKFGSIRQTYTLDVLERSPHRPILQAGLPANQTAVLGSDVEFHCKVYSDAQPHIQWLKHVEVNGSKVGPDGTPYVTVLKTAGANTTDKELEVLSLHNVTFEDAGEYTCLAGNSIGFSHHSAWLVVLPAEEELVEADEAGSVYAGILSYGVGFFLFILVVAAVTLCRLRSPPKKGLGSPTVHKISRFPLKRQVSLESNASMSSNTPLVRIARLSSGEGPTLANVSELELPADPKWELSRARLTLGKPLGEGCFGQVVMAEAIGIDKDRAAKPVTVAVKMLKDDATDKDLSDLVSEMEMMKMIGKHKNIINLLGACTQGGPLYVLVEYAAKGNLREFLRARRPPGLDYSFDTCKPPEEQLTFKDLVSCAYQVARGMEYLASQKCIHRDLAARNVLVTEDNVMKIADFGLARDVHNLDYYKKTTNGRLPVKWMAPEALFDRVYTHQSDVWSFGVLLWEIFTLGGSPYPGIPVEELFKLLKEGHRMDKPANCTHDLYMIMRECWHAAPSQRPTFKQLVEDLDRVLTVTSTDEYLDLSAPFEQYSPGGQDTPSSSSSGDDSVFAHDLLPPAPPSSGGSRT

Row | SMILES | ΔTm [1] | ΔTm (Peregrin (Homo sapiens))
1 | Cc1c(N2CCCC2)nc2ccc(Br)cc2c1C(=O)NC[C@H](CCC(=O)O)c1ccccc1Cl | 0.24 °C and 1.08 °C | -3.23 °C and -0.94 °C
2 | CCOC(=O)N1CCC(CN(Cc2ccc(Cl)cc2)Cc2ccc([N+](=O)[O-])s2)C1 (stereo not drawn) | 0.35 °C | -2.07 °C
3 | CN1C(=O)c2c(nn(Cc3ccc(-c4cccc(F)n4)cc3)c2Nc2ccccc2)N2C1=N[C@@H]1CCC[C@@H]12 | -0.44 °C | -3.07 °C
4 | O=C(O)/C=C/c1ccc(Cn2ccnc2)cc1 | 0.54 °C | -2.72 °C
5 | Cc1c(NC(=O)c2ccc(C(C)(C)C)cc2)cccc1-c1cn(C)c(=O)c(Nc2ccc(C(=O)N3CCOCC3)cc2)n1 | 0.54 °C | -4.33 °C
6 | CC(C)(C)OC(=O)CN1C(=O)c2c(OCC(=O)O)cccc2Oc2ccc(C(F)(F)F)cc21 | 0.75 °C | -3.16 °C
7 | CNC(=O)c1ccc(C)c(-n2c(C)cc(OCc3ccc(F)cc3F)c(Br)c2=O)c1 | -1.16 °C | -1.84 °C
8 | COc1ccc(-c2csc(NC(=O)[C@H]3CCCCN3S(=O)(=O)c3ccc(C)cc3)n2)cc1 | 0.16 °C | -0.84 °C
9 | CO[C@H](C)CN1CC[C@@]2(C)c3ccc(O)cc3C[C@@H]1C2(C)C | 0.41 °C | -2.03 °C
10 | COc1nc2ccc([C@@](O)(c3ccc(Cl)cc3)c3cncn3C)cc2c(Cl)c1Cc1ccc(-n2cccn2)cc1 | -1.77 °C | -1.33 °C
11 | Cc1sc(C(=O)c2cncnc2N[C@@H]2C[C@H](COS(N)(=O)=O)[C@@H](O)C2)cc1[C@@H]1NCCc2ccc(Cl)cc21 | 0.36 °C | -2.76 °C
12 | CC(=O)N(CCN(C)C)c1ccc(N/C(=C2\C(=O)Nc3cc(Cl)ccc32)c2ccccc2)cn1 | 7.35 °C | -1.84 °C
13 | C[C@@H]1CC(=O)N(C2CC2)N=C1c1ccc(NC(=O)N2Cc3ccncc3C2)cc1 | 0.58 °C | -2.03 °C
14 | CC1(C)Cc2nc(C3CCCC3)c([C@@H](F)c3ccc(C(F)(F)F)cc3)c(C3CCCCC3)c2[C@@H](O)C1 | 1.5 °C | -1.29 °C
15 | CC[C@H]1[C@@H](O)[C@@H]2[C@H](CC[C@]3(C)[C@@H]([C@H](C)CCC(=O)O)CC[C@@H]23)[C@@]2(C)CC[C@@H](O)C[C@@H]12 | 0 °C | -1.33 °C
16 | CCCc1c(OCCCOc2ccc(OCC(=O)O)cc2)ccc(C(C)=O)c1O | 0.12 °C | -1.78 °C
17 | N=C(N)Nc1cc(C2CCNCC2)cc(C(F)(F)F)c1 | 0.42 °C | -2.37 °C
18 | C[C@H]1CN(C2COC2)CCN1c1ccc(Nc2cc(-c3ccnc(N4CCn5c(cc6c5CC(C)(C)C6)C4=O)c3CO)cn(C)c2=O)nc1 | 4.28 °C | -2.12 °C
19 | COc1c(NC(=O)c2cc3cccc(Oc4ccnc(C(=O)N5CCN(C)CC5)c4)c3n2C)cc(C(C)(C)C)cc1NS(C)(=O)=O | 1.12 °C | -2.38 °C
20 | CC(=O)Oc1ccc2c(c1)[C@@]1(C)CCC[C@](C)(C(=O)OC(=O)[C@@]3(C)CCC[C@]4(C)c5cc(OC(C)=O)ccc5CC[C@@H]34)[C@@H]1CC2 | 0.1 °C | -2.67 °C
21 | CC(C)(C)C(=O)NCc1ccc(Cl)c(C(=O)Nc2ncc[nH]2)c1 | 0.47 °C | -2.86 °C
22 | CSc1ccc(C[C@@H](C)C(=O)O)cc1Nc1nc(N2CC[C@H](N(C)C)C2)cc(C(F)F)c1C#N | 0.35 °C | -2.68 °C
23 | CC[C@@H](CO)Nc1nc(Nc2cccc(NC(=O)C(C)(C)C)c2)ncc1F | 2.58 °C | -1.26 °C
24 | COc1ccc(N(C(=O)Nc2c(C)cccc2C)c2cc(Nc3ccc(N4CCN(C)CC4)cc3)ncn2)c(OC)c1 | 8.93 °C | -3.64 °C
25 | CC(C)c1cnc(NC(=O)Cc2ccccc2)s1 | 0.87 °C | 0.11 °C

Row | SMILES | ΔTm [1] | ΔTm (Peregrin (Homo sapiens))
26 | NC1(c2ccc(-c3nc4c(O)ccnn4c3-c3ccccc3)cc2)CCC1 | 0.79 °C | 0.22 °C
27 | Cc1cc(C2CCCNC2)ccc1Nc1ncc(Br)c(NCc2cccc3c2C(C)(C)C(=O)N3)n1 (stereo not drawn) | 2.52 °C | -1.21 °C
28 | CN(C)C(=O)Cn1cc(-c2ccc(-c3nnc4ccccn34)cc2)cn1 | 0.47 °C | -2.13 °C
29 | O=C(Nc1cccc(Nc2nccc(Nc3cccc(C(F)(F)F)c3)n2)c1)C1CC1 | 3.3 °C | 0.79 °C
30 | Clc1ccccc1C(c1ccccc1)(c1ccccc1)n1ccnc1 | 0.47 °C | -5.05 °C
31 | COc1cccc(CNc2ccc(S(=O)(=O)Nc3nc4ccccc4s3)cc2)c1O | 1.44 °C | -0.69 °C
32 | COc1cnccc1Nc1nc(-c2nn(Cc3c(F)cc(OCCO)cc3F)c3ccccc23)ncc1OC | -7.58 °C | -6.89 °C
33 | CCCCCCCN(CCc1ccc(SC(C)(C)C(=O)O)cc1)C(=O)Nc1ccc(F)cc1F | 0.87 °C | -1.59 °C
34 | Nc1nccc(-c2c(-c3ccc(F)cc3)ncn2C2CCCCC2)n1 | 0.92 °C | -0.2 °C
35 | Cc1cc(OCCC(C)(C)O)cc(C)c1-c1ccc(F)c2c1CC[C@H]2Oc1ccc2c(c1)OC[C@H]2CC(=O)O | -2.24 °C | -15.3 °C
36 | O=C(N[C@H](Cc1ccccc1)C(=O)O)c1cccc(OCc2cccnc2)c1 | 0.53 °C | -2.18 °C
37 | CO[C@@H](C)CN1CC[C@]2(C)c3cc(O)ccc3C[C@H]1C2(C)C | 1.13 °C | -3.01 °C
38 | O=C(O)c1ccnc(N2CC(O)(c3ccc(OCc4c(-c5c(Cl)cccc5Cl)noc4C4CC4)cc3Cl)C2)c1 | 0.03 °C | -1.75 °C
39 | CCN(C(=O)CO)[C@H]1CN(/C(=N\C#N)Nc2cccc(OC(F)F)c2)N=C1c1ccc(Cl)c(Cl)c1 | 0.47 °C | -1.11 °C
40 | COc1cc2ncnc(N[C@H](C)c3ccccc3)c2cc1OC1CCN(S(C)(=O)=O)CC1 | 0.38 °C | -0.11 °C
41 | CCc1nc(-c2cccc(C)c2)c(-c2ccnc(NC(=O)c3ccccc3)c2)s1 | -0.84 °C | -2.72 °C
42 | CN1CCC(C#N)(NC(=O)[C@@H](NC(=O)N2CCOCC2)C(C)(C)C)CC1 | 0.67 °C | -2.33 °C
43 | CCCCNc1ncc2c(-c3ccc(CN4CCN(C)CC4)cc3)cn([C@H]3CC[C@H](O)CC3)c2n1 | 7.9 °C | -3.2 °C
44 | CN[C@@H](C)C(=O)N[C@H](C(=O)N1CCC[C@H]1C(=O)N[C@H](C(=O)NCCCCCCNC(=O)[C@@H](NC(=O)[C@@H]1CCCN1C(=O)[C@@H](NC(=O)[C@H](C)NC)C1CCCCC1)C(c1ccccc1)c1ccccc1)C(c1ccccc1)c1ccccc1)C1CCCCC1 (I: H-[NMeA][Chg]P[Dip] / II: H-[NMeA][Chg]P[Dip]; linker I:C-II:C via Hexamethylenediamine) | 0.66 °C | -2.83 °C
45 | O=C(O)CCC/C=C\C[C@@H]1[C@@H](/C=C/[C@@H](O)COc2cccc(C(F)(F)F)c2)[C@H](O)C[C@@H]1O | 0.51 °C | -2.28 °C
46 | c1ccc2c(-c3coc4cc(-c5ccc(N6CCNCC6)cc5)cnc34)ccnc2c1 | 1.12 °C | -2.26 °C
47 | CC(C)NC(=O)[C@H]1CCC[C@H]1Nc1nc(Nc2ccc(C(=O)N(C)C3CCN(C)CC3)cc2)ncc1Cl | 6.71 °C and 5.98 °C | -1.64 °C and -0.91 °C
48 | Cc1cc2nc(N3CCC(C(=O)NC4CCCC4)CC3)n(C(C)C)c2cc1C | 0.35 °C | -3.41 °C
49 | COc1cc(F)ccc1-c1cc(Nc2cc(CS(C)(=N)=O)ccn2)ncc1F (stereo not drawn) | 3.5 °C | -1.49 °C
